Structures can show the parent of a compound that is named as a salt.
What follows are molecules tested against T1, PARP14 MD2 (Homo sapiens, UniProt Q460N5) (assay: AlphaScreen competitive binding assay, displacement of ADP-ribose peptide from PARP14 MD2). Settings: not given.
T1 sequence (Q460N5 1003-1190 limits assumed): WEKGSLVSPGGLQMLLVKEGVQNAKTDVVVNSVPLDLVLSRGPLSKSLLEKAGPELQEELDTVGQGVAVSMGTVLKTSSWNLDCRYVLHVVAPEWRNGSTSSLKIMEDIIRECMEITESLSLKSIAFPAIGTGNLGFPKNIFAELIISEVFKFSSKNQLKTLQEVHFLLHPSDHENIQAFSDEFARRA
Parameters: PARP14 MD2 (second MD of PARP14)
Description: Compounds were profiled for binding activity with PARP14 MD2 through a competitive (AlphaScreen™) binding assay measuring the displacement of ADP-ribose peptide from PARP14 MD2.[11a]

| inhibition of PARP14 MD2 (in words) | SMILES |
| --- | --- |
| inactive | COc1ccc2[nH]c3c(-c4ccccc4NC(C)=O)cccc3c2c1 [compound 39, N-[2-(6-Methoxy-9H-carbazol-1-yl)phenyl]acetamide] |
| complete loss of activity | CC(Nc1ccccc1-c1cccc2c1[nH]c1ccccc12)C(F)(F)F (racemic) [compound 51, (±)-2-(9H-Carbazol-1-yl)-N-(1,1,1-trifluoropropan-2-yl)aniline] |
| completely inactive | CC(=O)Nc1ccccc1-c1ccccc1Nc1ccccc1 [compound 31, N-[2'-(Phenylamino)-(1,1'-biphenyl)-2-yl]acetamide] |

| SMILES | inhibition of PARP14 MD2 (in words) |
| --- | --- |
| CC(=O)Nc1ccccc1-c1cccc2c3c([nH]c12)CCNC3 [compound 47, N-[2-(2,3,4,5-Tetrahydro-1H-pyrido[4,3-b]indol-6-yl)phenyl]acetamide hydrochloride] | inactive |

Same assay, conditions: Table 1; AlphaScreen, PARP14 MD2; read-out: IC50

| SMILES | IC50 [µM] |
| --- | --- |
| CCCC(=O)Nc1ccccc1-c1cccc2c1[nH]c1ccccc12 [compound 67, N-(2-(9H-carbazol-1-yl)phenyl)butyramide] | 0.9 ± 0.04 |
| CCNc1ccccc1-c1cccc2c1[nH]c1ccccc12 [compound 53, 2-(9H-Carbazol-1-yl)-N-ethylaniline] | > 50 |
| CCCS(=O)(=O)Nc1ccccc1-c1cccc2c1[nH]c1ccccc12 [compound 63, N-(2-(9H-Carbazol-1-yl)phenyl)propane-1-sulfonamide] | 2.9 ± 0.1 |
| O=S(=O)(Cc1ccccc1)Nc1ccccc1-c1cccc2c1[nH]c1ccccc12 [compound 79, N-(2-(9H-Carbazol-1-yl)phenyl)-1-phenylmethanesulfonamide] | 3.6 ± 0.3 |
| CC(=S)Nc1ccccc1-c1cccc2c1[nH]c1ccccc12 [compound 52, N-[2-(9H-Carbazol-1-yl)phenyl]thioacetamide] | 10.5 ± 0.4 |
| CN(C)S(=O)(=O)Nc1ccccc1-c1cccc2c1[nH]c1ccccc12 [compound 71, N1-(2-(9H-Carbazol-1-yl)phenyl)-N2,N2-dimethylsulfamide] | 2.5 ± 0.1 |
| Cc1ccc(-c2cccc3c2[nH]c2ccccc23)c(N)c1 [compound 59, 2-(9H-Carbazol-1-yl)-5-methylaniline] | > 50 |
| O=C(Nc1ccccc1-c1cccc2c1[nH]c1ccccc12)C(F)(F)F [compound 73, N-(2-(9H-carbazol-1-yl)phenyl)-2,2,2-trifluoroacetamide] | 1.1 ± 0.07 |
| CCS(=O)(=O)Nc1ccccc1-c1cccc2c1[nH]c1ccccc12 [compound 62, N-(2-(9H-carbazol-1-yl)phenyl)ethanesulfonamide] | 1.2 ± 0.03 |
| CC(=O)Nc1cnccc1-c1cccc2c1[nH]c1ccccc12 [compound 17] | > 50 |
| O=C(Nc1ccccc1-c1cccc2c1[nH]c1ccccc12)c1ccccc1 [compound 77, N-(2-(9H-carbazol-1-yl)phenyl)benzamide] | 1.9 ± 0.07 |
| CN(C)CC(=O)Nc1ccccc1-c1cccc2c1[nH]c1ccccc12 [compound 65, N-(2-(9H-carbazol-1-yl)phenyl)-2-(dimethylamino)acetamide] | 5.5 ± 0.6 |
| CS(=O)(=O)Nc1ccc(C(F)(F)F)cc1-c1cccc2c1[nH]c1ccccc12 [compound 58, N-(2-(9H-Carbazol-1-yl)-4-(trifluoromethyl)phenyl)methanesulfonamide] | > 50 |
| O=C(Nc1ccccc1-c1cccc2c1[nH]c1ccccc12)C1CC1 [compound 74, N-(2-(9H-carbazol-1-yl)phenyl)cyclopropanecarboxamide] | 1.2 ± 0.03 |

Further lines, results first:

| IC50 [µM] | SMILES |
| --- | --- |
| 7.6 ± 0.3 | O=C(Cc1ccccc1)Nc1ccccc1-c1cccc2c1[nH]c1ccccc12 [compound 78, N-(2-(9H-Carbazol-1-yl)phenyl)-2-phenylacetamide] |
| > 50 | O=C(Nc1ccccc1-c1cccc2c1[nH]c1ccccc12)c1ccco1 [compound 76, N-(2-(9H-carbazol-1-yl)phenyl)furan-2-carboxamide] |
| 1 ± 0.03 | CCC(=O)Nc1ccccc1-c1cccc2c1[nH]c1ccccc12 [compound 66, N-(2-(9H-carbazol-1-yl)phenyl)propionamide] |

Same assay, conditions: Table 2; AlphaScreen, PARP14 MD2; read-out: IC50

| IC50 [µM] | SMILES |
| --- | --- |
| 6.6 ± 0.5 | COc1cccc(CC(=O)Nc2ccccc2-c2cccc3c2[nH]c2ccccc23)c1 [compound 103, N-(2-(9H-Carbazol-1-yl)phenyl)-2-(3-methoxyphenyl)acetamide] |
| 6.9 ± 0.6 | O=C(Cc1ccc2c(c1)OCO2)Nc1ccccc1-c1cccc2c1[nH]c1ccccc12 [compound 99, N-(2-(9H-Carbazol-1-yl)phenyl)-2-(benzo[d][1,3]dioxol-5-yl)acetamide] |
| 1.4 ± 0.1 | O=S(=O)(Cc1cccc(F)c1)Nc1ccccc1-c1cccc2c1[nH]c1ccccc12 [compound 105, N-(2-(9H-Carbazol-1-yl)phenyl)-1-(3-fluorophenyl)methanesulfonamide] |
| 6.2 ± 0.6 | COc1ccc(CC(=O)Nc2ccccc2-c2cccc3c2[nH]c2ccccc23)cc1 [compound 94, N-(2-(9H-Carbazol-1-yl)phenyl)-2-(4-methoxyphenyl)acetamide] |
| 2.1 ± 0.1 | N#Cc1cccc(CC(=O)Nc2ccccc2-c2cccc3c2[nH]c2ccccc23)c1 [compound 107, N-(2-(9H-Carbazol-1-yl)phenyl)-2-(3-cyanophenyl)acetamide] |
| 2.8 ± 0.2 | O=C(Cc1ccccc1F)Nc1ccccc1-c1cccc2c1[nH]c1ccccc12 [compound 90, N-(2-(9H-Carbazol-1-yl)phenyl)-2-(2-fluorophenyl)acetamide] |
| 2.4 ± 0.2 | N#Cc1cc(CC(=O)Nc2ccccc2-c2cccc3c2[nH]c2ccccc23)ccn1 [compound 86, N-(2-(9H-Carbazol-1-yl)phenyl)-2-(2-cyanopyridin-4-yl)acetamide] |
| 4.4 ± 0.3 | O=C(Cc1ccccc1Cl)Nc1ccccc1-c1cccc2c1[nH]c1ccccc12 [compound 91, N-(2-(9H-Carbazol-1-yl)phenyl)-2-(2-chlorophenyl)acetamide] |
| 7.1 ± 0.7 | O=C(Cc1cccc(C(F)(F)F)c1)Nc1ccccc1-c1cccc2c1[nH]c1ccccc12 [compound 106, N-(2-(9H-Carbazol-1-yl)phenyl)-2-(3-(trifluoromethyl)phenyl)acetamide] |
| 44.6 ± 10.4 | Cc1ccc(C)c(CC(=O)Nc2ccccc2-c2cccc3c2[nH]c2ccccc23)c1 [compound 101, N-(2-(9H-Carbazol-1-yl)phenyl)-2-(2,5-dimethylphenyl)acetamide] |
| 6.2 ± 0.6 | O=C(Cc1ccc(Cl)cc1)Nc1ccccc1-c1cccc2c1[nH]c1ccccc12 [compound 96, N-(2-(9H-Carbazol-1-yl)phenyl)-2-(4-chlorophenyl)acetamide] |
| 3.5 ± 0.2 | N#Cc1ccc(CC(=O)Nc2ccccc2-c2cccc3c2[nH]c2ccccc23)cn1 [compound 87, N-(2-(9H-Carbazol-1-yl)phenyl)-2-(6-cyanopyridin-3-yl)acetamide] |

Same assay, conditions: text and figures; read-out: PARP14 MD2 IC50

| IC50 [µM] | SMILES |
| --- | --- |
| > 50 | CC(=O)Nc1ccncc1-c1cccc2c1[nH]c1ccccc12 [compound 15] |
| > 50 | CC(=O)Nc1ccccc1-c1cccc2c1C(O)c1ccccc1-2 (centres unmarked) [compound 29, N-[2-(9-Hydroxy-9H-fluoren-1-yl)phenyl]acetamide] |
| 30 | CC(=O)Nc1ccccc1-c1nccc2c1[nH]c1ccccc12 [compound 18] |
| 3 | CC(=O)Nc1ccccc1-c1cccc2c1[nH]c1ccc(Cl)cc12 [compound 38, N-[2-(6-Chloro-9H-carbazol-1-yl)phenyl]acetamide] |
| 2.5 | CC(=O)Nc1ccccc1-c1cccc2c1sc1ccccc12 [compound 27, N-[2-(Dibenzothiophen-4-yl)phenyl]acetamide] |
